Test results as given in patent EP0175171A2, “Use of 3,7,11,15-tetramethyl-2,4,6,10,14-hexadecapentaenoic acid for enhancing the effect of anti-tumour agents” (Eisai Co., Ltd., priority 1984, dated 1986).
Converted amounts (≈) assume the structure as drawn. Counter-ions that a name gives are not always drawn.

How the values were obtained:
HeLa.S3 cell [1] = experiment: Enhancement of cytocidal effect: colony formation of HeLa S3 cells, known carcinostatic drug added simultaneously with the compound of the present invention, 7 days; format: cell-based, human; conditions: for enhancement of the cytocidal effect of a carcinostatic drug: conclusion in words from the figures of Table 2 (CPM by the S9 mix protocol)
Protocol: Effect of the simultaneous use of a known carcinostatic agent and the compound (I) (Enhancement of cytocidal effect) • (1) Experimental material and procedure • ① Cell: Epithelical cell from human uterocervical cancer, HeLa.S3 cell • ② Cultivation: The cell was cultivated using a culture fluid obtained by adding 10 parts of fetal calf serum to 90 parts of Eagles Minimum Essential Medium in an incuvator having a carbon dioxide concentration controlled to 5% at 37°C. • ③ Drug: The compound of the present invention was added as a solution in dimethyl sulfoxide(DMSO) of a final DMSO concentration of 0.1% to the culture fluid. The clinical injections as shown in Table 1 were added to the culture fluid as a known carcinostatic drug. […] After the cultivation for 7 days, the cells were fixed with methanol and subjected to Giemsa's staining, followed by calculation of the number of colonies containing at least 20 cells under a stereomicroscope. The concentration (ng/mℓ) of the carcinostatic drug required to decrease the ratio of the number of colonies of a treated group to that of an untreated group (control) to 50% were determined and are shown as "IC50".

[2] = Toxicological test, oral administration for 14 days; format: in vivo; conditions: female ICR mice, orally, 14 days, 40, 200 or 400 mg/kg/day
Protocol: The compound of the present invention, 3,7,11,15-tetramethyl-2,4,6,10,14-hexadecapentaenoic acid, was administered orally to each group consisting of six female ICR mice for 14 days at a dosage of 40, 200 or 400 mg/kg/day, respectively, to observe changes in the weight, the mortality or the like.

HeLa.S3 cell [3] = experiment: cells; conditions: Homo sapiens
Protocol: The clinical injections as shown in Table 1 were added to the culture fluid as a known carcinostatic drug. [formula] • ④ Experimental procedure: 150 epithelical cells from human uterocervical cancer (HeLaS3 cell) were planted in each plastic dish of a diameter of 60 mm. […] After the cultivation for 7 days, the cells were fixed with methanol and subjected to Giemsa's staining, followed by calculation of the number of colonies containing at least 20 cells under a stereomicroscope. The concentration (ng/mℓ) of the carcinostatic drug required to decrease the ratio of the number of colonies of a treated group to that of an untreated group (control) to 50% were determined and are shown as "IC50".

[4] = Homo sapiens, HeLa S3, compound of the present invention 0 M; listed as 1): based on case where both compound and drug are 0, read-out: IC50 (ng/ml) 0 a)
[5] = Homo sapiens, HeLa S3, compound of the present invention 0 M; listed as 2): based on case where drug is 0 at the same compound concentration, read-out: IC50 (ng/ml) 0 a)
[6] = Homo sapiens, HeLa S3, compound of the present invention 3.2×10^-5 M; listed as 1): based on case where both compound and drug are 0, read-out: IC50 (ng/ml) 3.2×10^-5 d)
[7] = Homo sapiens, HeLa S3, compound of the present invention 3.2×10^-5 M; listed as 2): based on case where compound is 3.2×10^-5 M and drug is 0, read-out: IC50 (ng/ml) 3.2×10^-5 d)
[8] = Homo sapiens, HeLa S3, compound of the present invention 10^-5 M; listed as 1): based on case where both compound and drug are 0, read-out: IC50 (ng/ml) 10^-5 c)
[9] = Homo sapiens, HeLa S3, compound of the present invention 10^-5 M; listed as 2): based on case where compound is 10^-5 M and drug is 0, read-out: IC50 (ng/ml) 10^-5 c)
[10] = Homo sapiens, HeLa S3, compound of the present invention 10^-6 M; listed as 1): based on case where both compound and drug are 0, read-out: IC50 (ng/ml) 10^-6 b)
[11] = Homo sapiens, HeLa S3, compound of the present invention 10^-6 M; listed as 2): based on case where compound is 10^-6 M and drug is 0, read-out: IC50 (ng/ml) 10^-6 b)

Row | Compound | IC50 (HeLa.S3 cell [1]; [4]) | IC50 (HeLa.S3 cell [1]; [5]) | IC50 (HeLa.S3 cell [1]; [6]) | IC50 (HeLa.S3 cell [1]; [7]) | IC50 (HeLa.S3 cell [1]; [8]) | IC50 (HeLa.S3 cell [1]; [9]) | IC50 (HeLa.S3 cell [1]; [10]) | IC50 (HeLa.S3 cell [1]; [11]) | enhancement of the cytocidal effect of a carcinostatic drug (HeLa.S3 cell [1]) | other results
1 | CC[C@]1(O)C[C@H]2CN(CCc3c([nH]c4ccccc34)[C@@](C(=O)OC)(c3cc4c(cc3OC)N(C=O)[C@H]3[C@@](O)(C(=O)OC)[C@H](OC(C)=O)[C@]5(CC)C=CCN6CC[C@]43[C@@H]65)C2)C1 [VCR, vincristine sulfate] | 5.5 ng/mL | 5.5 ng/mL | 2.63 ng/mL | 5.65 ng/mL | 6.38 ng/mL | 7.7 ng/mL | 7.44 ng/mL | 7.45 ng/mL |  | 
2 | COc1cccc2c1C(=O)c1c(O)c3c(c(O)c1C2=O)C[C@@](O)(C(=O)CO)C[C@@H]3O[C@H]1C[C@H](N)[C@H](O)[C@H](C)O1 [ADM, doxorubicin hydrochloride] | 3.79 ng/mL | 3.79 ng/mL | 1.88 ng/mL | 3.14 ng/mL | 2.43 ng/mL | 4.15 ng/mL | 3.1 ng/mL | 3.51 ng/mL |  | 
3 | CO[C@@]12[C@H](COC(N)=O)C3=C(C(=O)C(C)=C(N)C3=O)N1C[C@@H]1N[C@@H]12 [MMC, mitomycin] | 1.5 ng/mL | 1.5 ng/mL | 0.4 ng/mL | 0.84 ng/mL | 0.74 ng/mL | 0.82 ng/mL | 1.05 ng/mL | 1.06 ng/mL | particularly remarkable | 
4 | Cc1c(N)nc([C@H](CC(N)=O)NC[C@H](N)C(N)=O)nc1C(=O)N[C@H](C(=O)N[C@H](C)[C@@H](O)[C@H](C)C(=O)N[C@H](C(=O)NCCc1nc(-c2nc(C(=O)NCCCN[C@@H](C)c3ccccc3)cs2)cs1)[C@@H](C)O)[C@@H](O[C@@H]1O[C@@H](CO)[C@@H](O)[C@H](O)[C@@H]1O[C@H]1O[C@H](CO)[C@@H](O)[C@H](OC(N)=O)[C@@H]1O)c1c[nH]cn1.O=S(=O)(O)O [PEP, pepleomycin sulfate] |  |  |  |  |  |  |  |  | particularly remarkable | 
5 | O=c1[nH]cc(F)c(=O)[nH]1 [5-FU, fluorouracil] | 648 ng/mL | 648 ng/mL | 267 ng/mL | 347 ng/mL | 329 ng/mL | 369 ng/mL | 375 ng/mL | 388 ng/mL | particularly remarkable | 
6 | CC(C)=CCCC(C)=CCCC(C)=CC=CC(C)=CC(=O)O [compound of the present invention, 3,7,11,15-tetramethyl-2,4,6,10,14-hexadecapentaenoic acid] |  |  |  |  |  |  |  |  | synergisticly enhances the cytocidal effect of a carcinostatic drug | mortality [2]: No mice died
7 | Nc1ccn([C@@H]2O[C@H](CO)[C@@H](O)[C@@H]2O)c(=O)n1 [Ara-C, cytarabine] | 10.9 ng/mL | 10.9 ng/mL | 6.25 ng/mL | 11.6 ng/mL | 11.4 ng/mL | 12.4 ng/mL | 11.9 ng/mL | 12 ng/mL |  | 
8 | bleomycin hydrochloride [BLM] |  |  |  |  |  |  |  |  | particularly remarkable | 
9 | O=P1(N(CCCl)CCCl)NCCCO1 (centres unmarked) [CPM, cyclophosphamide] |  |  |  |  |  |  |  |  | particularly remarkable | IC50 (HeLa.S3 cell [3]; HeLa S3, read-out: IC50 (ng/ml) 0 a), S9 mix protocol; compound of the present invention 0 M; listed as 1): based on case where both compound and drug are 0): 4210 ng/mL (≈ 16.1 µM); IC50 (HeLa.S3 cell [3]; HeLa S3, read-out: IC50 (ng/ml) 0 a), S9 mix protocol; compound of the present invention 0 M; listed as 2): based on case where drug is 0 at the same compound concentration): 4210 ng/mL (≈ 16.1 µM); IC50 (HeLa.S3 cell [3]; HeLa S3, read-out: IC50 (ng/ml) 3.2×10^-5 d), S9 mix protocol; compound of the present invention 3.2×10^-5 M; listed as 1)): 1220 ng/mL (≈ 4.69 µM); IC50 (HeLa.S3 cell [3]; HeLa S3, read-out: IC50 (ng/ml) 3.2×10^-5 d), S9 mix protocol; compound of the present invention 3.2×10^-5 M; listed as 2)): 2300 ng/mL (≈ 8.82 µM); IC50 (HeLa.S3 cell [3]; HeLa S3, read-out: IC50 (ng/ml) 10^-5 c), S9 mix protocol; compound of the present invention 10^-5 M; listed as 1)): 1330 ng/mL (≈ 5.08 µM); IC50 (HeLa.S3 cell [3]; HeLa S3, read-out: IC50 (ng/ml) 10^-5 c), S9 mix protocol; compound of the present invention 10^-5 M; listed as 2)): 1970 ng/mL (≈ 7.56 µM); IC50 (HeLa.S3 cell [3]; HeLa S3, read-out: IC50 (ng/ml) 10^-6 b), S9 mix protocol; compound of the present invention 10^-6 M; listed as 1)): 3360 ng/mL (≈ 12.9 µM); IC50 (HeLa.S3 cell [3]; HeLa S3, read-out: IC50 (ng/ml) 10^-6 b), S9 mix protocol; compound of the present invention 10^-6 M; listed as 2)): 3160 ng/mL (≈ 12.1 µM)
10 | COC(COC(N)=O)C1=C(N2CC2)C(=O)C(C)=C(N2CC2)C1=O (centres unmarked) [CQ, carboquone] | 0.339 ng/mL | 0.339 ng/mL | 0.076 ng/mL | 0.131 ng/mL | 0.242 ng/mL | 0.275 ng/mL | 0.273 ng/mL | 0.253 ng/mL | particularly remarkable | 
11 | Cc1ncc(CNC(=O)N(CCCl)N=O)c(N)n1 [ACNU, minustine hydrochloride] | 135 ng/mL | 135 ng/mL | 102 ng/mL | 136 ng/mL | 146 ng/mL | 150 ng/mL | 143 ng/mL | 147 ng/mL |  | 
12 | S=P(N1CC1)(N1CC1)N1CC1 [Thio-TEPA, Thio TEPA] |  |  |  |  |  |  |  |  |  | IC50 (HeLa.S3 cell [1]; Homo sapiens, HeLa S3, read-out: IC50 (ng/ml) 0 a), compound of the present invention 0 M; 1): based on case where both compound and drug are 0): 311 ng/mL; IC50 (HeLa.S3 cell [1]; Homo sapiens, HeLa S3, read-out: IC50 (ng/ml) 0 a), compound of the present invention 0 M; listed as 2): based on case where drug is 0 at the same compound concentration): 311 ng/mL; IC50 (HeLa.S3 cell [1]; Homo sapiens, HeLa S3, read-out: IC50 (ng/ml) 3.2×10^-5 d), compound of the present invention 3.2×10^-5 M; 2): based on case where compound is 3.2×10^-5 M and drug is 0): 244 ng/mL; IC50 (HeLa.S3 cell [1]; Homo sapiens, HeLa S3, read-out: IC50 (ng/ml) 3.2×10^-5 d), compound of the present invention 3.2×10^-5 M; listed as 1): based on case where both compound and drug are 0): 274 ng/mL; IC50 (HeLa.S3 cell [1]; Homo sapiens, HeLa S3, read-out: IC50 (ng/ml) 10^-5 c), compound of the present invention 10^-5 M; listed as 1): based on case where both compound and drug are 0): 299 ng/mL; IC50 (HeLa.S3 cell [1]; Homo sapiens, HeLa S3, read-out: IC50 (ng/ml) 10^-5 c), compound of the present invention 10^-5 M; listed as 2): based on case where compound is 10^-5 M and drug is 0): 319 ng/mL; IC50 (HeLa.S3 cell [1]; Homo sapiens, HeLa S3, read-out: IC50 (ng/ml) 10^-6 b), compound of the present invention 10^-6 M; 2): based on case where compound is 10^-6 M and drug is 0): 291 ng/mL; IC50 (HeLa.S3 cell [1]; Homo sapiens, HeLa S3, read-out: IC50 (ng/ml) 10^-6 b), compound of the present invention 10^-6 M; listed as 1): based on case where both compound and drug are 0): 274 ng/mL
